Data reported in PubChem BioAssay (NCI).
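Five concentrations, 48 hours, 96-well plates. TGI marks complete inhibition of growth.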

How the values were obtained:
Assay in all cases: NCI anticancer screen, dose series, 48 h
[1] = tested on: SN12C renal
[2] = tested on: KM20L2 colon
[3] = tested on: MDA-MB-435
[4] = tested on: A549 NSCLC
[5] = tested on: SW-620 colon
[6] = tested on: OVCAR-4 ovarian
[7] = tested on: TK-10 renal
[8] = tested on: SF-268 CNS
[9] = tested on: HCT-15 colon
[10] = tested on: NCI-H460 lung
[11] = tested on: NCI/ADR-RES ovarian
[12] = tested on: OVCAR-3 ovarian
[13] = tested on: COLO 205 colon
[14] = tested on: HL-60(TB) leukemia
[15] = tested on: HCC-2998 colon
[16] = tested on: CAKI-1 renal
[17] = tested on: EKVX NSCLC
[18] = tested on: NCI-H522 lung
[19] = tested on: 786-0 renal
[20] = tested on: SNB-19 CNS
[21] = tested on: LXFL 529 NSCLC
[22] = tested on: BT-549 breast
[23] = tested on: MCF7 breast
[24] = tested on: HOP-18 NSCLC
[25] = tested on: KM12 colon
[26] = tested on: A498 renal
[27] = tested on: SR leukemia
[28] = tested on: DLD-1 colon
[29] = tested on: UO-31 renal
[30] = tested on: PC-3 prostate
[31] = tested on: UACC-257 melanoma
[32] = tested on: MDA-N
[33] = tested on: UACC-62 melanoma
[34] = tested on: XF 498 CNS
[35] = tested on: U251 CNS
[36] = tested on: HT29 colon
[37] = tested on: ACHN renal
[38] = tested on: OVCAR-5 ovarian
[39] = tested on: DMS 114 small cell lung
[40] = tested on: NCI-H23 lung
[41] = tested on: RXF 393 renal
[42] = tested on: T-47D breast
[43] = tested on: MOLT-4 leukemia
[44] = tested on: HOP-62 NSCLC
[45] = tested on: SNB-78 CNS
[46] = tested on: OVCAR-8 ovarian
[47] = tested on: HCT-116 colon
[48] = tested on: DU-145 prostate
[49] = tested on: M19-MEL melanoma
[50] = tested on: NCI-H226 lung
[51] = tested on: SNB-75 CNS
[52] = tested on: SK-MEL-2 melanoma
[53] = tested on: HS 578T breast
[54] = tested on: SK-OV-3 ovarian
[55] = tested on: DMS 273 small cell lung
[56] = tested on: MDA-MB-231 breast
[57] = tested on: MALME-3M melanoma
[58] = tested on: SK-MEL-5 melanoma
[59] = tested on: CCRF-CEM leukemia
[60] = tested on: M14 melanoma
[61] = tested on: SF-295 CNS
[62] = tested on: K-562 leukemia
[63] = tested on: SF-539 CNS
[64] = tested on: RPMI-8226 leukemia
[65] = tested on: SK-MEL-28 melanoma
[66] = tested on: HOP-92 NSCLC
[67] = tested on: LOX IMVI melanoma
[68] = tested on: IGROV1 ovarian

CC1OC(=O)C2CC3CCCCC3C(/C=C/C3CCCC(C)N3C)C12 (stereo not drawn)
TGI [1]: > 100 µM | TGI [2]: > 100 µM | TGI [3]: > 100 µM | TGI [4]: > 100 µM | TGI [5]: > 100 µM | TGI [6]: > 100 µM | TGI [7]: > 100 µM | TGI [8]: > 100 µM | TGI [9]: > 100 µM | TGI [10]: > 100 µM | TGI [11]: > 100 µM | TGI [12]: > 100 µM | TGI [13]: > 100 µM | TGI [14]: > 100 µM | TGI [15]: > 100 µM | TGI [16]: > 100 µM | TGI [17]: > 100 µM | TGI [18]: > 100 µM | TGI [19]: > 100 µM | TGI [20]: > 100 µM | TGI [21]: > 100 µM | TGI [22]: > 100 µM | TGI [23]: > 100 µM | TGI [24]: > 100 µM | TGI [25]: > 100 µM | TGI [26]: > 100 µM | TGI [27]: > 100 µM | TGI [28]: > 100 µM | TGI [29]: > 100 µM | TGI [30]: > 100 µM | TGI [31]: > 100 µM | TGI [32]: > 100 µM | TGI [33]: > 100 µM | TGI [34]: > 100 µM | TGI [35]: > 100 µM | TGI [36]: > 100 µM | TGI [37]: > 100 µM | TGI [38]: > 100 µM | TGI [39]: > 100 µM | TGI [40]: > 100 µM | TGI [41]: > 100 µM | TGI [42]: > 100 µM | TGI [43]: > 100 µM | TGI [44]: > 100 µM | TGI [45]: > 52.8 µM | TGI [46]: > 100 µM | TGI [47]: > 100 µM | TGI [48]: > 100 µM | TGI [49]: > 100 µM | TGI [50]: > 100 µM | TGI [51]: > 100 µM | TGI [52]: > 100 µM | TGI [53]: > 100 µM | TGI [54]: > 100 µM | TGI [55]: > 100 µM | TGI [56]: > 100 µM | TGI [57]: > 100 µM | TGI [58]: > 100 µM | TGI [59]: > 100 µM | TGI [60]: > 100 µM | TGI [61]: > 68.1 µM | TGI [62]: > 100 µM | TGI [63]: > 100 µM | TGI [64]: > 100 µM | TGI [65]: > 100 µM | TGI [66]: > 100 µM | TGI [67]: > 100 µM | TGI [68]: > 100 µM
